In ChEMBL document CHEMBL4819121, “Fused chromeno and quinolino[1,8]naphthyridines: Synthesis and biological evaluation as topoisomerase I inhibitors and antiproliferative agents” (Bioorg Med Chem, 2021):
pIC50: −log10 of the molar value. The source made the active and inactive calls. No cut-off for these calls is given here.

How the values were obtained:
[1] = molecular target: T1, DNA topoisomerase 1 (Homo sapiens) (UniProt P11387); assay: Inhibition of recombinant human topoisomerase 1 expressed in yeast TopI null strain RS190 at 100 uM using negatively supercoiled pUC18 plasmid DNA as substrate incubated for 15 secs by agarose gel electrophoresis method; conditions: time 15.0 sec
T1 sequence (whole entry): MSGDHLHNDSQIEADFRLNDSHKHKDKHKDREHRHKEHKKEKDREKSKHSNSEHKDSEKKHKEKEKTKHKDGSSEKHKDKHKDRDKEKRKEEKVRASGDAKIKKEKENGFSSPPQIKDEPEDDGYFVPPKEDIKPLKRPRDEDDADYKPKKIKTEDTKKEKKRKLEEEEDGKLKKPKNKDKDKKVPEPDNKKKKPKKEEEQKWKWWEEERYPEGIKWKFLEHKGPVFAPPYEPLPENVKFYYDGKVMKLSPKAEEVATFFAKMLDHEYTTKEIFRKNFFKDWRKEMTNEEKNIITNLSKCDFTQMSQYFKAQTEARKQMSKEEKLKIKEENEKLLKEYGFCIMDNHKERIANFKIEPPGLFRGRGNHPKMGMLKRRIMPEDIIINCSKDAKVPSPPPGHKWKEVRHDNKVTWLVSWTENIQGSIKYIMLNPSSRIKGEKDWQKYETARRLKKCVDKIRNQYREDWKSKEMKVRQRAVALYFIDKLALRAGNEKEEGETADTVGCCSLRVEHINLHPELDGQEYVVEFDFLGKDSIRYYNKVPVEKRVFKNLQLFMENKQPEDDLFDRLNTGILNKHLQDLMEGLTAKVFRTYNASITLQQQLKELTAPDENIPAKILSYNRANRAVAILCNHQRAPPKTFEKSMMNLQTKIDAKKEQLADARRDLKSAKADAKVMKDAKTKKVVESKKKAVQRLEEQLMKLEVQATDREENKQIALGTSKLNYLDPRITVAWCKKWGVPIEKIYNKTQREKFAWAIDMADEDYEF

[2] = molecular target: T1, DNA topoisomerase 1 (Homo sapiens); assay: Inhibition of recombinant human topoisomerase 1 expressed in yeast TopI null strain RS190 at 100 uM using negatively supercoiled pUC18 plasmid DNA as substrate incubated for 1 min by agarose gel electrophoresis method
[3] = molecular target: T1, DNA topoisomerase 1 (Homo sapiens); assay: Inhibition of recombinant human topoisomerase 1 expressed in yeast TopI null strain RS190 at 100 uM using negatively supercoiled pUC18 plasmid DNA as substrate incubated for 3 min by agarose gel electrophoresis method
A549 = assay: Antiproliferative activity against human A549 cells assessed as cell growth inhibition measured after 48 hrs by CCK-8 assay; format: functional, cell-based; conditions: A549, 48 h
SK-OV-3 = assay: Antiproliferative activity against human SK-OV-3 cells assessed as cell growth inhibition measured after 48 hrs by CCK-8 assay; format: functional, cell-based; conditions: SK-OV-3, 48 h
MRC5 = assay: Antiproliferative activity against human MRC5 cells assessed as cell growth inhibition measured after 48 hrs by CCK-8 assay; format: cell-based; conditions: MRC5, 48 h
[4] = molecular target: T1, DNA topoisomerase 1 (Homo sapiens); assay: Poison activity at recombinant human topoisomerase 1 expressed in yeast TopI null strain RS190 assessed as increase in nicked plasmid DNA at 100 uM using supercoiled pUC18 plasmid DNA as substrate incubated for 15 to 180 secs by Ethidium bromide staining based agarose gel electrophoresis analysis; conditions: time 15-180 sec

Row | SMILES | inhibition [1] | inhibition [2] | inhibition [3] | pIC50 (A549) | pIC50 (SK-OV-3) | pIC50 (MRC5) | Activity [4]
1 | Fc1ccc2c(c1)-c1nc3ncccc3c(-c3ccccc3)c1CO2 | 41% | 40% | 11% | 4.51 | 4.42 | < 4.30 | 
2 | O=c1oc2ccccc2c2nc3ncc(Br)cc3c(-c3ccccc3)c12 | 21% | 15% | 5% | < 4.30 | < 4.30 | < 4.30 | 
3 | Cc1ccc(S(=O)(=O)N2Cc3c(nc4ncccc4c3-c3ccccc3)-c3ccccc32)cc1 | 95% | 93% | 92% | 4.75 | 4.77 | < 4.30 | 
4 | O=c1oc2ccc(F)cc2c2nc3ncccc3c(-c3ccccc3)c12 | 5% | 4% | 4% | < 4.30 | < 4.30 | < 4.30 | 
5 | O=C1Oc2ccccc2[C@H]2Nc3ncc(Br)cc3[C@@H](c3ccccc3)[C@H]12 | 11% | 10% | 1% | < 4.30 | < 4.30 | < 4.30 | 
6 | COc1ccc(-c2c3c(nc4ncccc24)-c2ccccc2OC3)cc1 | 11% | 11% | 6% | < 4.30 | < 4.30 | < 4.30 | 
7 | Cc1ccc2c(c1)[C@H]1Nc3ncccc3[C@@H](c3ccccc3)[C@@H]1CO2 | 21% | 15% | 1% | < 4.30 | < 4.30 | < 4.30 | 
8 | Cc1ccc(S(=O)(=O)N2C[C@H]3[C@H](c4ccccc4)c4cccnc4N[C@@H]3c3ccccc32)cc1 | 91% | 89% | 85% | 5.20 | 5.09 | < 4.30 | Active
9 | Cc1ccc(S(=O)(=O)N2Cc3c(nc4ncc(Br)cc4c3-c3ccccc3)-c3ccccc32)cc1 | 98% | 98% | 95% | 4.98 | 4.91 | < 4.30 | Active
10 | c1ccc(-c2c3c(nc4ncccc24)-c2ccccc2OC3)cc1 | 10% | 9% | 2% | < 4.30 | < 4.30 | < 4.30 | 
11 | O=c1oc2ccccc2c2nc3ncccc3c(-c3ccccc3)c12 | 75% | 75% | 51% | 5.91 | 5.75 | < 4.30 | 
12 | c1ccc([C@@H]2c3cccnc3N[C@@H]3c4ccccc4OC[C@@H]23)cc1 | 61% | 60% | 5% | 4.93 | 4.91 | < 4.30 | 
13 | Fc1ccc2c(c1)[C@H]1Nc3ncccc3[C@@H](c3ccccc3)[C@@H]1CO2 | 14% | 14% | 1% | < 4.30 | < 4.30 | < 4.30 | 
14 | CC[C@@]1(O)C(=O)OCc2c1cc1n(c2=O)Cc2cc3ccccc3nc2-1 |  |  |  |  |  |  | Active
15 | Cc1ccc2c(c1)-c1nc3ncccc3c(-c3ccccc3)c1CO2 | 26% | 1% | 1% | < 4.30 | < 4.30 | < 4.30 | 
16 | O=C1Oc2ccc(F)cc2[C@H]2Nc3ncccc3[C@@H](c3ccccc3)[C@H]12 | 5% | 5% | 4% | < 4.30 | < 4.30 | < 4.30 | 
